According to patent publication US8153592B2, “Modulating toll-like receptor activity” (Mayo Foundation for Medical Education and Research, priority 2005, dated 2012):
Blank lines part the entries; values can stand above or below the substance they belong to.

Experiments:
[1] = biological target: T1, TLR4/MD2 complex (Mus musculus, UniProt Q9JHF9+Q9QUK6); assay: Cell surface expression of TLR4/MD2 on HEK/TLR4(+) cells (flow cytometry); assay type: cell-based, murine; settings: HEK/TLR4 cells treated with SDF-1
T1 construct: expressed in transfected cells; host or cells: HEK 293 (HEK/TLR4(+))
T1 sequence (Q9QUK6 26-835): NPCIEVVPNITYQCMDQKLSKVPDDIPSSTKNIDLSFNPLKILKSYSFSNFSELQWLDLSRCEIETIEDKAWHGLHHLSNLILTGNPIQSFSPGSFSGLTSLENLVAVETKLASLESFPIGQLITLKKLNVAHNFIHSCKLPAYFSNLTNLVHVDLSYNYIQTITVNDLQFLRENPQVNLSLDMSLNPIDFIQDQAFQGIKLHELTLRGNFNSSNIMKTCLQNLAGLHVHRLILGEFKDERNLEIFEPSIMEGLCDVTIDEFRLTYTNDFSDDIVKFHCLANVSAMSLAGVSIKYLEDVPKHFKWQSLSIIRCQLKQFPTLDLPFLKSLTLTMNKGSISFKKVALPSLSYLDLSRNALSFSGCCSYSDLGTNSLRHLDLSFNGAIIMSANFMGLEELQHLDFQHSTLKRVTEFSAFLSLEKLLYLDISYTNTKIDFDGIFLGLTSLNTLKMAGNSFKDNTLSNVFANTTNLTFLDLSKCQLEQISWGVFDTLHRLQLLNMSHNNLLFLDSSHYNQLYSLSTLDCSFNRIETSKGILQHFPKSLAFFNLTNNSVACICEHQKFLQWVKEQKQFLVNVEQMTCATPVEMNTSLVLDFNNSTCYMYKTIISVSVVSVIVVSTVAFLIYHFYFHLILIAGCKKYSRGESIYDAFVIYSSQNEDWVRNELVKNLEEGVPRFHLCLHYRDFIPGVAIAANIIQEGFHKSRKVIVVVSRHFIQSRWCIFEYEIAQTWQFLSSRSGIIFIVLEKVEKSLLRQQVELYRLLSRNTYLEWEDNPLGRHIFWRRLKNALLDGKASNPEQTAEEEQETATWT
T1 sequence (Q9JHF9 19-160): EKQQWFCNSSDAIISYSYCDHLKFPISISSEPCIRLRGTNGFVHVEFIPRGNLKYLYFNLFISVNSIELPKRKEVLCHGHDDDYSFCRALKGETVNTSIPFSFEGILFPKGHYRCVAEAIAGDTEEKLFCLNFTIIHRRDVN
Protocol: FIG. 2. TLR4 signaling is conditioned by extracellular matrix. The impact of extracellular matrix on TLR4 activation was tested in cells cultured in wells coated with extracellular matrix. (A) and (B) Inhibition of NFκB activation by extracellular matrix in HEK/TLR4(+) cells. HEK/TLR4(+) cells were cultured in wells coated with extracellular matrix (ECM) or fibronectin (FN) and transfected with NFκB- and control-luciferase reporter genes. TLR4 signaling in response to increasing amounts of heparan sulfate (A) or LPS (B) was measured six hours after stimulation. […] The cells were tested for cell surface expression of the TLR4/MD2 complex by flow cytometry using monoclonal antibodies specific for that complex. […] (D) and (E) Inhibition of p38 MAP Kinase activation by extracellular matrix in RAW 264 cells. (D) RAW 264.7 murine macrophages were cultured in wells coated with extracellular matrix (ECM) or fibronectin (FN). The cells were stimulated with heparan sulfate (left panel) or LPS (right panel) for the indicated time (minutes), after which the cells were lysed and activated p38 MAPK (phospho p38) was measured by immunoblotting. […] Similar results were obtained for cells stimulated with LPS. The data shown are representative of 3 separate experiments and indicate that activation of TLR4 signaling is inhibited by extracellular matrix.

[2] = biological target: T2, TLR4 (Mus musculus, UniProt Q9JHF9+Q9QUK6); assay: NFκB-luciferase reporter assay in HEK/TLR4(+) cells with perturbed CXCR4 (Examples 2 and 3); assay type: cell-based, murine
T2 construct: expressed in transfected cells
T2 sequence (Q9QUK6 26-835): T1 sequence (Q9QUK6 26-835)
T2 sequence (Q9JHF9 19-160): T1 sequence (Q9JHF9 19-160)
Protocol: HEK 293 cells (human embryonic kidney cells) from American Type Culture Collection (ATCC) were cultured in DMEM containing 10% fetal bovine serum, penicillin, and streptomycin. […] TLR4/MD2/CD14 expressing HEK 293 cells were selected using appropriate antibiotic selection medium and were then cloned by limiting dilution in the same medium. Control cells were prepared using empty expression vectors and identical transfection and selection procedures.
HEK 293 cell lines stably expressing TLR4/MD2/CD14 were seeded into 24-well tissue culture plates (2×10^5 cells/well) and allowed to adhere at 37° C. overnight. The adherent cells were transfected with 0.1 μg pTK Renilla-luciferase and 0.1 μg NFκB-firefly-luciferase using Superfect Transfection Reagent (Qiagen) and then cultured for 24 hours at 37° C. in 1 mL DMEM containing 0.5% fetal bovine serum. The cells were stimulated as indicated, washed with phosphate buffered saline, and lysed with 150 μL Passive Lysis Buffer (Promega). The amount of Renilla- and Firefly-luciferase in the cell lysates was assayed simultaneously using Dual-Luciferase Reporter Assay System (Promega) and a TD-20/20 lumenometer (Turner Designs, Sunnyvale, Calif.). Activation of NFκB-firefly luciferase reporter activity is given as the ratio of firefly luciferase to the internal control Renilla luciferase activity, determined and expressed as the mean of triplicate wells.

[3] = biological target: T3, CXCR4 (Homo sapiens, UniProt P61073); assay: CXCR4 cell surface level on Jurkat T cells (FACS, internalization of CXCR4); assay type: cell-based; settings: 37° C. for 30 minutes
T3 construct: endogenous in cells; host or cells: Jurkat T cells
Protocol: To determine if the purified, recombinant [Hisx6]SDF-1 polypeptide activates CXCR4, Jurkat T cells were stimulated (37° C. for 30 minutes) with buffer alone or with buffer containing a synthetic SDF-1 polypeptide or the purified recombinant [Hisx6]SDF-1 polypeptide. Control cells were stimulated with bovine albumin. The treated cells were stained with fluorochrome-labeled anti-CXCR4 antibodies, and the amount of CXCR4 on the cell surface was measured by the intensity of CXCR4 antibody staining using FACS.

[4] = biological target: T2, TLR4; assay: NFκB-luciferase reporter assay in HEK/TLR4(+) cells (Example 1: TLR4 activators, extracellular matrix, elastase); assay type: cell-based, murine
From the text: HEK 293 cells were stabily transfected with the TLR4 and MD2 or CD14 expression plasmids, each of which encode a component of a complete, functional TLR4 receptor complex (Akira and Takeda, Nat. Rev. Immunol., 4:499-511 (2004)) using Superfect (Qiagen, Valencia, Calif.) following the manufacturer's instructions. TLR4- and MD2- or CD14-expressing HEK 293 cells were obtained by culturing the transfected cells with appropriate antibiotic selection medium and cloning by limiting dilution in the selection medium. HEK 293 cells expressing TLR4, MD2, and CD14 were generated by transfecting HEK 293 cells expressing TLR4 and MD2 with the CD14 expression plasmid and selecting clones using appropriate antibiotic containing medium. Cell lines expressing TLR4 and MD2 and/or CD14 were then maintained in DMEM supplemented with 10% fetal bovine serum and the appropriate selection antibiotics. Control cell lines were transfected with empty expression vectors and incubated in selection conditions as described above.
Activation of NFκB was measured using a NFκB-luciferase reporter assay. HEK 293 cell lines stabily expressing TLR4, MD2, and/or CD14, or control cells were seeded into 24 well tissue culture plates (2×10^5 cells/well) in 1.0 mL DMEM containing 10% fetal bovine serum and penicillin and streptomycin. The cells were allowed to adhere to the culture wells at 37° C. overnight and were then transfected with 0.1 μg pTK Renilla-luciferase and 0.1 μg NFκB-firefly-luciferase using Superfect Transfection Reagent (Qiagen). Following transfection, the cells were washed once with phosphate buffered saline and cultured for 24 hours at 37° C. in 1.0 mL DMEM containing 0.5% fetal bovine serum. After various treatments, the culture medium was aspirated, and the cells were washed once with PBS. The cells were then lysed in 150 μL Passive Lysis Buffer (Promega) with rocking at room temperature for 15 minutes. Renilla- and Firefly-luciferase were assayed simultaneously using Dual-Luciferase Reporter Assay System (Promega) and a TD-20/20 luminometer (Turner Designs, Sunnyvale, Calif.). Activation of NFκB was reported as a ratio of the firefly luciferase activity to the constitutively expressed Renilla luciferase internal control, and as the mean of triplicate wells.

[5] = system: TLR4; assay: CD86 expression in mouse spleen after intrasplenic injection (immunopathology); assay type: in vivo, mice; settings: mice which lack TLR4 function (ScN), injected into spleen
Protocol: (§1) TLR4-deficient C57BL/10ScN mice, which have a deletion in chromosome 4 that encompasses the TLR4 gene, were obtained from The National Cancer Institute (Bethesda, Md.). C57BL/10SnJ mice, which have wild type TLR4 and are congenic with C57BL/10ScN were obtained from the Jackson Laboratory (Bar Harbor, Me.).
(§2) Mice were anesthetized, and the spleen was directly visualized through an incision in the lateral abdominal wall. TLR4 activators dissolved in 50 μL of PBS were injected into the spleen as follows. The solutions were injected as a 27 gauge needle was withdrawn along the long axis of the organ. Twelve hours after injection, the spleens were harvested and frozen in liquid nitrogen for analysis of CD86 expression. Studies were performed at twelve hours because preliminary experiments indicated CD86 expression became clearly detectable at this time. Longitudinal tissue sections were prepared from the center of the spleen and stained as described elsewhere (Dempsey et al., Glycobiology, 10:467-475 (2000)) with the following modifications. Secondary detection antibodies were diluted in M.O.M. diluent (Vector Laboratories, Burlingame, Calif.) and preabsorbed with mouse serum (Jackson ImmunoResearch Laboratories, West Grove, Pa.). Fluorescent images were converted to grayscale using SPOT software (Diagnostic Instruments, Sterling Heights, Mich.).

[6] = biological target: T4, TLR4 (Mus musculus, UniProt Q9QUK6); assay: as above; assay type: in vivo, mice; settings: wild-type TLR4 mice, 12 hours
T4 construct: Spleens of C57BL/10SnJ mice with wild-type TLR4 (SnJ) were injected with 10 ng LPS; from tissue; host or cells: mouse spleen in vivo (C57BL/10SnJ; control C57BL/10ScN lacks the TLR4 gene)
T4 sequence (Q9QUK6 26-835): T1 sequence (Q9QUK6 26-835)
T4 sequence (Q9JHF9 19-160 partner): T1 sequence (Q9JHF9 19-160)
Protocol: as §1, §2

T3 sequence (P61073 whole entry): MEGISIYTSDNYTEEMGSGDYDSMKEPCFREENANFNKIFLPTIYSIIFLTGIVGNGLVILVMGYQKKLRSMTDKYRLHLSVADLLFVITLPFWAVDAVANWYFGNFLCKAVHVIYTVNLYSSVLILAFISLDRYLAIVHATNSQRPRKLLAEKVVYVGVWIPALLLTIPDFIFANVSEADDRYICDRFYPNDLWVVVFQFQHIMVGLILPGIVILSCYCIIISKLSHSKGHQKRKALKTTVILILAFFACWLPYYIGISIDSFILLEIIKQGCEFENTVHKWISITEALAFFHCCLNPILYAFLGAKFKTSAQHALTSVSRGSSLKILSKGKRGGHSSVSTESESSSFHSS

- Expression of TLR4 [1]: did not alter expression of TLR4
Substance: SDF-1: the agonist for CXCR4; natural ligand polypeptide
- TLR4 activation by LPS (NFκB-luciferase) ([2]; HEK/TLR4(+) cells stimulated simultaneously with LPS and 50 nM SDF-1): indifferent to the presence of LPS at any concentration tested
- NFκB-luciferase reporter activation by the agent itself ([2]; HEK/TLR4(+) cells, no LPS): slight activation of the luciferase reporter

Substance: [Hisx6]SDF-1: recombinant, histidine-tagged murine SDF-1 polypeptide produced in E. coli
- Amount of CXCR4 on the cell surface [3]: stimulate a decrease in CXCR4 on cell surfaces

Substance: pertussis toxin
- TLR4 activation by LPS (NFκB-luciferase) ([2]; HEK/TLR4(+) cells treated with 0.1 μg/mL pertussis toxin): diminished TLR4 activation by LPS

- TLR4 response to heparan sulfate ([4]; cells grown on fibronectin, 1 μg/mL HS, 4 hours): responded fully to HS
Substance: heparan sulfate
- Activation of HEK/TLR4(+) cells (NFκB-luciferase) ([4]; 10 μg/mL heparan sulfate or 10 ng/mL LPS, 6 hours): responded both to LPS and heparan sulfate

- Expression of CD86 in splenocytes ([6]; 0.1 U elastase alone): profoundly increased expression of CD86
- Expression of CD86 in splenocytes ([6]; small amount (0.01 U) of elastase along with 1 ng LPS): profoundly increased expression of CD86
- TLR4 response to elastase ([4]; cells grown on fibronectin): did not respond to elastase
- Increase of TLR4 response to heparan sulfate versus no elastase ([4]; cells on extracellular matrix, elastase 0.1 U/mL, 1 μg/mL heparan sulfate, 4 hours): about 3 fold
Substance: elastase
- Increase in CD86 expression [5]: not observed
- Expression of CD86 in splenocytes ([6]; 0.01 U elastase into spleen): only modestly increased expression of CD86
- TLR4 response without added agonist ([4]; cells on extracellular matrix, elastase 0.3 U/mL, 4 hours): stimulated full TLR4 responses without addition of agonist
